Laboratory results: patent US10117948B2, “Selective arylation of dichalcogenides in biomolecules” (priority 2015, dated 2018)
≈ marks a conversion by molar mass, not a printed value.

Legend:
[1] = cited from earlier work
[2] = test system: BT-474 cells (mammary gland cancer cells); assay: Screening of genistein antibody-drug conjugate against BT-474 cells; type: cell-based; settings: tested as ADC of genistein
Text: An antibody-drug conjugate (ADC) of genistein was screened against BT-474 cells (mammary gland cancer cells).

[3] = test system: gram-positive bacteria and gram-negative bacteria; settings: due to the outer cell membrane; cited from earlier work
[4] = test system: E. faecalis VRE (Van B) (MMX 202, ATCC 51299); assay: MIC screening, vancomycin vs vancomycin/peptide conjugates; type: cell-based; settings: Enterococcus faecalis
Text: (§1) Vancomycin was conjugated to a variety of antibacterial peptides and screened against (a) resistant strains of gram-positive bacteria and b) gram-negative bacteria. See FIG. 20, FIG. 21, FIG. 22, and Table 3.

[5] = test system: E. faecalis VRE (Van A) (MMX 486); assay: as above; type: cell-based; settings: Enterococcus faecalis
Text: as §1

[6] = test system: K. pneumoniea PSSP (MMX 1195, ATCC 49619); assay: as above; type: cell-based
Text: as §1

[7] = test system: K. pneumoniea KPC-1 (MMX 6902, ATCC BAA-1705); assay: as above; type: cell-based
Text: as §1

[8] = test system: A. baumannii Wild-type (MMX 1630, ATCC 19606); assay: as above; type: cell-based; settings: Acinetobacter baumannii, ATCC19606
Text: as §1

[9] = test system: E. faecalis VSE: QC (MMX 101, ATCC 29212); assay: as above; type: cell-based; settings: Enterococcus faecalis, ATCC29212
Text: as §1

Compound | pKa [1] | toxicity to cells [2] | activity against gram-negative bacteria [3] | MIC [4] [µg/mL] | MIC [5] [µg/mL] | MIC [6] [µg/mL] | MIC [7] [µg/mL] | MIC [8] [µg/mL] | MIC [9] [µg/mL]
N[C@@H](CS)C(=O)O [cysteine] | 8.14 |  |  |  |  |  |  |  | 
N[C@@H](C[SeH])C(=O)O [selenocysteine] | 5.47 | not toxic to cells |  |  |  |  |  |  | 
CN[C@H](CC(C)C)C(=O)N[C@H]1C(=O)N[C@@H](CC(N)=O)C(=O)N[C@H]2C(=O)N[C@H]3C(=O)N[C@H](C(=O)N[C@H](C(=O)O)c4cc(O)cc(O)c4-c4cc3ccc4O)[C@H](O)c3ccc(c(Cl)c3)Oc3cc2cc(c3O[C@@H]2O[C@H](CO)[C@@H](O)[C@H](O)[C@H]2O[C@H]2C[C@](C)(N)[C@H](O)[C@H](C)O2)Oc2ccc(cc2Cl)[C@H]1O [vancomycin] |  |  | not active | 16 (≈ 11 µM) | > 64 | 0.25 (≈ 0.173 µM) | > 64 | > 64 | 4 (≈ 2.76 µM)
